These results are taken from patent US20260210856A1, “CONJUGATED OLIGOELECTROLYTES WITH BORON-DIPYRROMETHENE CORES AND METHODS THEREOF” (National University of Singapore, priority 2022, published 2026).

Data set [1] can be described thus: Analyte viscosity sensing: fluorescence lifetime in the presence of different analytes. As to conditions: 0.5 μM. It is filed as physicochemical. As for the experimental part:
Solutions of bovine serum albumin (BSA), high density lipoprotein (HDL), Liposomes of POPC:POPG 85:15 (SUVs) and Liposomes of POPC:POPG:Cholesterol 42.5:7.5:50 (SUV CHOL) were prepared at final concentrations of 1 mg/mL in PBS. COE-BYs were prepared at 1 μM in PBS. 150 μL of analyte and 150 μL of COE-BYs were mixed and incubated for 1 hour at 37C. Fluorescent emission profiles were measured with excitation at 545 nm.

In data set [2] the test system is HeLa cells. The experiment in a line: Membrane tension imaging during endocytosis, 2P-FLIM. The class given is cell-based. As for the experimental part:
We thus stained HeLa cells with COE-BYPhOC4 for different lengths of time and captured 2P-FLIM images of the cell state at specific intervals. For these studies, we correlated the time-dependent colocalization experiments with 2P-FLIM data to link τw with the identity of the vesicles. […] Time dependent colocalization with Rab5a allowed us a means of assigning the identities of the vesicles. At 2 hours, the blue and green vesicles in FLIM image were identified as early endosomes. Upon increasing staining time to 4 h, all COE-BYPhOC4 entered the cells with a further increase in τw, leading to a main yellow color. […] As previously analyzed from the colocalization images in FIG. 12, all the COEs resided exclusively within late endosomes at this point in time. […] This observation is potentially reflective of the different domains in endosomes.

Data set [3] in a line: Photophysical properties in PBS and in SUVs (POPC:POPG 85:15). It is filed as physicochemical. An excerpt: The photophysical properties of the COE-BY series were studied in phosphate-buffered saline (PBS) and within model lipid bilayers. Small unilamellar vesicles (SUVs) composed of 1-palmitoyl-2-oleoyl-glycero-3-phosphocholine (POPC) and 1-palmitoyl-2-oleoyl-sn-glycero-3-phospho-(1′-rac-glycerol) sodium (POPG) (85:15, mol/mol) were used to simulate the lipid environment in cell membranes. The absorption spectra in PBS for all compounds feature a main peak at ~550 nm, reflecting the presence of the BODIPY subunit (FIG. 9A). One also observes a 5-10 nm red-shift of lowest energy absorption peak with increasing electron-withdrawing strength of the phenyl substituents.
Upon inserting into lipid bilayers, the fluorescence intensity increases over 27-fold for COE-BYPhMe, 30-fold for COE-BYPhOC4, 35-fold for COE-BYPhCN and 40-fold for COE-BYPhNO, relative to the values measured in PBS (FIG. 1c and FIG. S5). The increase in emission intensity reflects a transition to a more rigid and hydrophobic environment. Quantum yields increase to 32% for COE-BYPhMe, 60% for COE-BYPhOC4, 13% for COE-BYPhCN, and 10% for COE-BYPhNO in SUVs from 1% for COE-BYPhMe, 3% for COE-BYPhOC4, and 0.5% for COE-BYPhCN in PBS. The QY of COE-BYPhNO in PBS cannot be accurately determined by using a conventional fluorometer due to its weak fluorescence. The maximum emission wavelengths are redshifted from 587/589 nm (COE-BYPhMe/OC4) to 605/611 nm (COE-BYPhCN/NO) as a result of the decreased HOMO-LUMO energy gaps. […] Furthermore, the fluorescence spectra of COE-BYs intercalated within SUVs show a narrow band at wavelengths between 587 nm and 611 nm, with a full width half maximum (FWHM) linewidth of 52-68 nm (Table 1).

Data set [4] can be described thus: Fluorescence lifetime in water:glycerol mixtures of varying viscosities. The class given is physicochemical. As to conditions: 590 nm, 20° C. As for the experimental part: The BODIPY unit of COE-BYs are sensitive to the viscosity of its environment. As an example, COE-BYPhMe was added to mixtures of water and glycerol at various ratios. The viscosity of the local environment has the most significant effect on its emission intensity and emission lifetime. The plot of log τ (fluorescence lifetime) versus log η (solvent viscosity) is fitted by a straight line.
We examined the sensitivity of COE-BYs to changes in viscosity in solution by using different glycerol and water mixtures. The viscosities of the solutions were increased through increases of the glycerol fraction. Of interest was the relationship between the viscosity (η) and the amplitude-weighted average emission lifetime (τw), which is defined by
Each individual lifetime component Tr is normalized to the corresponding amplitude (Ai) derived from fitting the emission decay to a multiexponential model, where p is the total number of exponents (1 or 2). […] It is known that increases in environmental viscosity restricts the rotation of the phenyl rings surrounding the BODIPY unit, which diminishes non-radiative decay pathways of the excited state, resulting in longer fluorescence lifetimes. […] Due to the low emission, we could not accurately extract emission lifetimes from the fluorescence decays of COE-BYPhCN and COE-BYPhNO.

The subject of data set [5] is HeLa cells. The data set can be described thus: Brightness of stained HeLa cells by flow cytometry. The class given is cell-based. As to conditions: FIG. 11. The source says: To evaluate their potential use as fluorescent probes for intracellular imaging, we first analyzed the brightness of each COE-BY molecule when used to stain HeLa cells using flow cytometry. As flow cytometry reports the fluorescence intensity per cell, this analysis would enable simultaneous evaluation of the cellular uptake and brightness. […] Based on these parameters, COE-BYPhOC4 was chosen for further in vitro imaging studies.

Take `CCCCOc1ccc(C2=C3C(C)=C(c4ccc(/C=C/c5cc(OCCCCCC[N+](C)(C)C)c(OCCCCCC[N+](C)(C)C)c(OCCCCCC[N+](C)(C)C)c5)cc4)C(C)=[N+]3[B-](F)(F)n3c(C)c(-c4ccc(/C=C/c5cc(OCCCCCC[N+](C)(C)C)c(OCCCCCC[N+](C)(C)C)c(OCCCCCC[N+](C)(C)C)c5)cc4)c(C)c32)cc1.[I-].[I-].[I-].[I-].[I-].[I-]` [COE-BYPhOC4]: the Lifetime in data set [1] (analyte HDL 0.5 mg/mL) stood at 4.02 ± 0.01 ns; in data set [1] (analyte PBS), 0.56 ± 0.01 ns; in data set [1] (analyte SUV (POPC:POPG 85:15) 0.5 mg/mL), 1.99 ± 0.01 ns; in data set [1] (analyte SUV CHOL (POPC:POPG:Cholesterol 42.5:7.5:50) 0.5 mg/mL) it was 2.18 ± 0.01 ns. Moreover, the τw with HeLa cells [2] (8 to 24 h, red-orange vesicles) is listed as 2.7-3.0 ns; in the data set with HeLa cells [2] (0.5 h, plasma membranes), “≈ 1.5 ns”; in the data set on HeLa cells [2] (0.5 h, regions beginning to be internalized), “≈ 1.0 ns”; with HeLa cells [2] (vesicles taken up earlier (green)), 2.0-2.4 ns. The FWHM in data set [3] (fluorescence spectra, intercalated within SUVs) turned out to be 56 nm. For the same molecule, the “ΦF in PBS” value in data set [3] (in PBS) came to 3%. For the same molecule, in data set [3] (in PBS), the λabs is listed as 540 nm. Also, the “λem in PBS” value in data set [3] (in PBS) was found to be 602 nm. Further, in data set [3] (in SUVs), the “ΦF in SUVs” value is recorded as 60%. Moreover, the “λem in SUVs” value in data set [3] (in SUVs) was found to be 589 nm. Further, in data set [3] (relative to the values measured in PBS), the “fluorescence intensity increase upon inserting into lipid bilayers” value was greater than 30 fold. Besides, the results for the “amplitude-weighted average emission lifetime τw” value in data set [4] (solution viscosity 22.5 cP) and in data set [4] (solution viscosity 939 cP) were 0.5 ns and 1.2 ns, respectively. In addition, the “brightness of stained cells” value in the data set with HeLa cells [5] is listed as “highest brightness”.
